Earlier results on 3 molecules are cited in EP1069913B1, “GELLING OPHTHALMIC COMPOSITIONS CONTAINING XANTHAN GUM” (Alcon Laboratories, Inc., priority 1998, dated 1999).

The conditions of this data set: Maleate: second pKa; Boric Acid: in presence of 3.75 to 4.4 wt.% mannitol.
As for `CC(C)(C)NC[C@H](O)COc1nsnc1N1CCOCC1` [Timolol, reference compound], the pKa is recorded as 9.21.

Take `O=C(O)/C=C\C(=O)O` [Maleate]: the pKa was 6.33. As for `OB(O)O` [Boric Acid], the pKa is reported as 5.7-5.85.
